Literature values, collected in patent US11229595B2, “Skin barrier preparation and method therefor” (Johnson & Johnson Consumer Inc., priority 2019, dated 2022).

System: skin
Conditions: eight volunteers, four compounds compared, patches during 24 hours

SMILES	increase of TEWL
CN(C)CCCN1c2ccccc2CCc2ccccc21 [imipramine]	increased the least TEWL
CCCCCCCCC(=O)O [nonanoic acid]	increased the least TEWL
